Activity calls are given as the source filed them. The rule behind the calls is not given here.

The target in this test is Replicase polyprotein 1ab (Severe acute respiratory syndrome coronavirus) (UniProt P0C6X7). The test is described as follows: SARS 3CLpro cleavage inhibition IC50 – biochemical, quenched FRET, dose response (AID 1890). The note with it: purified 3CLpro, quenched FRET peptide cleavage.
With `CCn1nc(-c2ccccc2)nc2c(=O)n(C)c(=O)nc1-2`, the IC50 was > 59.6 µM (inactive).
With `O=C(c1cc(=O)[nH]c2ccccc12)N1CCN(c2cccc(C(F)(F)F)c2)CC1` the figure was 5.1 µM; with `COc1ccc(C(C(=O)NCC2CCCO2)N(C(=O)Cn2nnc3ccccc32)c2ccc(NC(C)=O)cc2)cc1` (configuration not stated), 9.35 µM.
With `CCCCOc1ccc(C(=O)Oc2cccnc2)cc1` the figure was > 59.6 µM (inactive).
Consider `COc1ccc(C(=O)n2c(SC)nc3cc4c(cc32)OCCO4)cc1`, for which the IC50 was 1.08 µM.
With `CC1CCC2C(=O)N(c3cc(Cl)ccc3OC(=O)c3ccco3)C(=O)C2C1` (configuration not stated), the IC50 is 5.39 µM.
The same measure for `O=C(/C=C/c1ccc(Cl)c([N+](=O)[O-])c1)NCc1cccnc1`: “inactive”; for `CCN(CC)C(=O)Cn1cc(/C=C2\C(=O)NC(=O)N(c3ccccc3F)C2=O)c2ccccc21`: “inactive”.
The same measure for `Cc1cc(C)n(C(=O)c2ccc(C)c(Br)c2)n1`: “inactive”.
The same measure for `COc1ccccc1OCCNC(=O)c1cc(=O)[nH]c2ccccc12`: 3.6 µM; for `COc1ccc(N(Cc2cc(=O)[nH]c3ccccc23)C(=O)CCl)cc1`: “inactive”; for `COc1ccc(C(=O)Oc2cccnc2)cc1`: > 59.6 µM (inactive).
For the compound `O=C1C(=O)N(C/C=C/c2ccccc2)c2ccccc21`, the IC50 result was “inactive”.
`O=C(Cn1nnc2ccccc21)c1ccc(Cl)cc1`: the half-inhibitory concentration (IC50) was 9.91 µM.
With `O=C(Oc1ccc(Br)cc1C(=O)/C=C/c1ccccc1F)c1ccco1` the figure was 7.12 µM; with `NC(=O)CCn1c(C(=O)c2ccc(Cl)cc2)c2ccccc2[n+]1[O-]`, 4.88 µM.
Take `CC(C)c1ccc(N(C(=O)c2ccco2)C(C(=O)NC2CCCC2)c2cccnc2)cc1` (configuration not stated): the half-maximal inhibitory concentration (IC50) was 5.93 µM.
The same measure for `Nc1ncc(Br)cc1S(=O)(=O)Nc1cc(C(F)(F)F)cc(C(F)(F)F)c1`: > 59.6 µM (inactive).
With `Cc1cc(NC(=O)COC(=O)C(Nc2ccc(C(F)(F)F)cc2Cl)C(C)C)no1` (configuration not stated) the figure was > 59.6 µM (inactive); with `O=C(OCC(=O)N1c2ccccc2Sc2ccccc21)c1cccnc1`, “inactive”; with `COc1ccc2c(c1)C(=O)C(=O)N2CC1COc2ccccc2O1` (configuration not stated), 9.74 µM.
With `NC(=O)CCn1c(C(=O)c2cccc([N+](=O)[O-])c2)c2ccccc2[n+]1[O-]` the entry was “inactive”.
`Cc1ccc2[nH]c3c(c2c1)CN(C(=O)CN1c2ccc(F)cc2CCC1C)CC3` (configuration not stated): the IC50 result is “inactive”.
With `C[C@@]12C(=O)N(c3cccc(Br)c3)C(=O)N1[C@H](c1ccc(Cl)cc1)[C@@H]1C(=O)N(C3CCCCC3)C(=O)[C@@H]12` the figure was > 59.6 µM (inactive); with `Cc1cc(=O)oc2cc(OC(=O)c3ccco3)ccc12`, 3.34 µM; with `CCc1cc(=O)oc2cc(OC(=O)c3ccco3)ccc12`, 2.96 µM.
Regarding `CC(=O)NC1C(=O)N(CCN2CCOCC2)c2ccc(F)cc21` (configuration not stated), the IC50 is 9.1 µM.
The same measure for `O=C(Nc1ccccc1)NN(C(=O)CCl)c1ccccc1`: 9.64 µM; for `O=C(O)c1ccc2ncsc2c1`: “inactive”.
The same measure for `CCc1nc(N2CCN(C(=O)CCl)CC2)c2c3c(sc2n1)CC(C)CC3` (configuration not stated): 4.23 µM.
The same measure for `CCOc1ccc2c(c1)C(=O)C(=O)N2CC1COc2ccccc2O1` (configuration not stated): 4.29 µM; for `O=C1C(=O)N(CC2COc3ccccc3O2)c2ccccc21` (configuration not stated): “inactive”.
For the compound `O=C1C(=O)N(CCCc2ccccc2)c2ccccc21`, the IC50 result was “inactive”.
The same measure for `COc1cccc(/C=N/NC(=S)Nc2cccnc2)c1`: “inactive”; for `Cc1cc(NC(=O)COn2nnc3ccc(S(C)(=O)=O)cc32)ccc1Br`: “inactive”; for `O=C(Cc1ccc(Cl)c(Cl)c1)Nc1cccnc1`: “inactive”.
As for `CC(C)C[C@H](NC(=O)c1nc[nH]c1C(=O)NCc1ccc(CNC(=O)OC(C)(C)C)cc1)C(=O)OC(C)(C)C`, the IC50 is > 59.6 µM (inactive).
Take `COc1ccccc1/C=C/C(=O)c1cc(Br)ccc1OC(=O)c1ccco1`: the IC50 is 8.94 µM.
The same measure for `Cc1ccc(C(=O)O)cc1NC(=S)NC(=O)c1ccc(COc2ccccc2)cc1`: > 59.6 µM (inactive); for `COc1ccc(C2C(O)C(c3c[nH]c4ccccc34)=NN2C(=O)CCl)cc1` (configuration not stated): 3.58 µM; for `CC1(C)C2CC=C(/C=N/NC(=S)Nc3cccnc3)C1C2` (configuration not stated): > 59.6 µM (inactive).
For the compound `Cc1nnc(SC(=O)N2c3ccccc3Sc3ccccc32)s1`, the IC50 entry is “inactive”.
Regarding `COc1cccc(C(C(=O)Nc2ccc(F)cc2)N(C(=O)Cn2nnc3ccccc32)C2CC2)c1` (configuration not stated), the IC50 result is “inactive”.
As for `COc1ccc(C2CC(c3cccs3)=NN2C(=O)CCl)cc1OC` (configuration not stated), the 50% inhibitory concentration (IC50) is 2.3 µM.
Turning to `O=C(O)c1[nH]c2ccccc2c1C(c1cc(Br)ccc1O)c1c(C(=O)O)[nH]c2ccccc12`, the IC50 is > 59.6 µM (inactive).
Regarding `CN(C)S(=O)(=O)c1cccc(NC(=O)CSc2cccc3cccnc23)c1`, the IC50 result is “inactive”.
With `Cc1ccc(-c2cc(NC(=O)c3ccccc3[N+](=O)[O-])n[nH]2)cc1` the entry was “inactive”.
In the case of `O=C(Nc1ccc(OCC(F)(F)C(F)F)c(C(F)(F)F)c1)c1ccccc1O`, the IC50 is > 59.6 µM (inactive).
With `COc1cccc(C(C(=O)NCC2CCCO2)N(C(=O)Cn2nnc3ccccc32)c2ccc(NC(C)=O)cc2)c1` (configuration not stated), the IC50 entry is “inactive”.
The same measure for `Cc1cccc(N2CCN(C(=O)c3cc(=O)[nH]c4ccccc34)CC2)c1C`: 6.66 µM; for `Cc1cc(C(=O)CCl)c(C)n1-c1cccc([N+](=O)[O-])c1`: 4.59 µM; for `COc1ccc2cc(C3(C)NC(=O)N(CC(=O)NCc4ccco4)C3=O)ccc2c1` (configuration not stated): “inactive”.
For `O=C(NCc1ccco1)C(c1ccco1)N(C(=O)Cn1nnc2ccccc21)c1ccc2c(c1)CCC2` (configuration not stated), the IC50 entry is “inactive”.
The same measure for `O=C(O)COc1ccc(Br)cc1C(c1c(C(=O)O)[nH]c2ccccc12)c1c(C(=O)O)[nH]c2ccccc12`: > 59.6 µM (inactive).
As to `O=C(/C=C/c1ccccc1Cl)Nc1cccnc1`, the IC50 result was “inactive”.
As for `Cc1ccc(C(=O)Oc2ccc3c(c2)ncn3C)cc1`, the IC50 entry was “inactive”.
As to `O=c1[nH]c(=O)n(-c2ccccc2F)c(O)c1/C=C1\C=Nc2ccccc21`, the half-inhibitory concentration (IC50) is 9.47 µM.
Regarding `CCc1ccc2c(c1)C(NC(C)=O)C(=O)N2CCN1CCOCC1` (configuration not stated), the half-maximal inhibitory concentration (IC50) was 6.56 µM.
On to `Cc1sc(NC(=O)CCl)c(C(=O)c2ccccc2)c1C`, for which the IC50 entry is “inactive”.
With `N#CCC(=O)N/N=C/c1c(-c2ccccc2)n(-c2ccccc2)c2ccccc12` the figure was > 59.6 µM (inactive); with `Cc1ccc(/C=C/C(=O)c2cc(Br)ccc2OC(=O)c2ccco2)cc1`, “inactive”; with `Cc1cc(C)c(N(C(=O)Cn2nnc3ccccc32)C(C(=O)NC(C)(C)C)c2ccsc2)c(C)c1` (configuration not stated), 2.9 µM.
With `CC(=O)c1c(OC(=O)c2ccco2)c2ccccc2n1C` the entry was “inactive”.
Take `O=C(CCl)N(CCc1ccccc1)CCc1ccccc1`: the IC50 result was “inactive”.
As to `O=C(Oc1ccc(Cl)cc1N1C(=O)CCC1=O)c1ccco1`, the IC50 entry was “inactive”.
As for `COc1ccc(N(C(=O)Cn2nnc3ccccc32)C2(C(=O)NC3CCCC3)CCCCC2)cc1`, the IC50 is 7.89 µM.
With `Cc1ccc(C(=O)c2c3ccccc3[n+]([O-])n2CCC(N)=O)cc1` the figure was 9.36 µM; with `Cc1ccc(C(=O)c2c3ccc(C(F)(F)F)cc3[n+]([O-])n2CCC(N)=O)cc1`, “inactive”; with `Cn1cnc2cc(NC(=O)c3ccc(Cl)cc3)ccc21`, “inactive”.
Consider `NC(=O)CCn1c(C(=O)c2cc(Cl)c(N)c(Cl)c2)c2ccccc2[n+]1[O-]`, for which the IC50 was 9.81 µM.
The same measure for `O=C(/C=C/c1cccs1)Nc1scc(-c2ccccc2)c1C(=O)O`: 5.22 µM.
The same measure for `O=C(CSc1ccccn1)Nc1nonc1[N+](=O)[O-]`: 7.07 µM; for `O=C(Cn1nnc2ccccc21)c1ccc(Br)cc1`: 4.01 µM; for `O=Cc1cn(Cc2ccccc2)nc1-c1cccnc1`: 7.21 µM.
With `CCC(C)(C)NC(=O)C(c1ccc(O)cc1)N(C(=O)Cn1nnc2ccccc21)c1ccc(NC(C)=O)cc1` (configuration not stated) the entry was “inactive”; with `O=C(/C=C/c1c(F)cccc1Cl)Nc1cccnc1`, “inactive”.
With `CC(=O)n1cc(N(C(=O)CCl)c2ccc([N+](=O)[O-])cc2)c2ccccc21`, the IC50 result was “inactive”.
Turning to `CCC(C)(C)NC(=O)C(c1cccn1C)N(C(=O)Cn1nnc2ccccc21)c1ccc(NC(C)=O)cc1` (configuration not stated), the IC50 is 6.29 µM.
Turning to `Cn1nc(-c2ccc(Cl)cc2)nc2c(=O)n(C)c(=O)nc1-2`, the IC50 was > 19.9 µM (inactive).
With `COc1cccc(C(C(=O)NCc2ccco2)N(Cc2ccco2)C(=O)Cn2nnc3ccccc32)c1` (configuration not stated) the figure was 7.76 µM; with `O=C(c1cc(=O)[nH]c2ccccc12)N1CCN(c2ccccc2)CC1`, 9.95 µM.
With `Cc1ccc(C2CC(c3cccs3)=NN2C(=O)CCl)cc1` (configuration not stated) the figure was 4.19 µM; with `CC(=O)c1cc(-c2ccccc2)[nH]c1N1CCCC1`, 4.63 µM.
With `Cc1cccc2c1N(CCOc1ccccc1)C(=O)C2=O`, the IC50 entry was “inactive”.
With `CC(=O)Nc1ccc(N(C(=O)Cn2nnc3ccccc32)C(C(=O)NC2CCCC2)c2ccc(O)c(O)c2)cc1` (configuration not stated) the entry was “inactive”; with `O=C(N/N=C\c1c(O)ccc2ccccc12)c1cncc(Br)c1`, “inactive”.
With `Cc1ccc(C2=NN(C(=O)CCl)C(c3ccco3)C2)o1` (configuration not stated), the IC50 was 5.2 µM.
For the compound `COc1cc2c(cc1OC)C(c1cc(Br)ccc1F)N(C(=O)CCl)CC2` (configuration not stated), the IC50 is 9.88 µM.
As for `CCc1cccc(CC)c1N(COC)C(=O)Cn1nnc2ccccc21`, the IC50 result was “inactive”.
`CC(C)C12CN(C(=O)c3ccccc3[N+](=O)[O-])CC(C(C)C)(CN(C(=O)c3ccccc3[N+](=O)[O-])C1)C2=O`: the IC50 entry was “inactive”.
With `CCC(C)c1ccc(N(C(=O)c2ccco2)C(C(=O)NC2CCCC2)c2cccnc2)cc1` (configuration not stated) the figure was 2.23 µM.
With `O=C(Oc1cccnc1)c1ccc(Cl)cc1` the figure was 6.31 µM.

One may read the IC50 as the point on the concentration scale where inhibition reaches its midpoint.

The values above are taken from PubChem BioAssay AID1890 (The Scripps Research Institute Molecular Screening Center, 2009).
